The nature of experiment [1]: Cytotoxicity against human KB-3-1 cells after 72 hrs by MTS assay. The conditions noted are these: KB 3-1, 72 h. The format is functional. For orientation: Tetrazolium assays rely on reduction of a dye to a coloured formazan, in cell work by metabolically active cells.
A short description of experiment [2]: Inhibition of chymotrypsin-like activity in proteasome. The format is subcellular.
Experiment [3] has as its system HL-60. In words: Cytotoxicity against human HL60 cells. The format is functional.
Experiment [4] has as its system HL-60. In words: Induction of apoptosis in human HL60 cells assessed as PARP cleavage at 10 uM after 24 hrs by Western blot. Type of experiment: functional, cell-based. (In general: In western blotting, separated proteins are transferred to a membrane and probed.)
The next experiment deals with HCT-116. The experiment can be described thus: Cytotoxicity against human HCT116 cells. The format is functional.
Another experiment deals with HepG2. In words: Cytotoxicity against human HepG2 cells. The format is functional.
Experiment [5] relates to HL-60. In words: Induction of apoptosis in human HL60 cells assessed as activation of caspase 9 at 1 uM. The format is functional, cell-based.
Experiment [6] has as its system HL-60. In words: Induction of apoptosis in human HL60 cells assessed as activation of caspase 3/7 at 0.01 uM. Type of experiment: functional, cell-based.
For experiment [7], the system named is HL-60. In words: Induction of apoptosis in human HL60 cells assessed as activation of caspase 3/7 at 1 uM. The format is functional, cell-based.
Experiment [8] can be described thus: Inhibition of trypsin-like activity in proteasome. The format is subcellular.
A short description of experiment [9]: Cytotoxicity against human KB3 cells. The format is functional.
In the next experiment the test system is A549. In words: Cytotoxicity against human A549 cells. The format is functional.
The test system of experiment [10] is HL-60. The experiment can be described thus: Induction of apoptosis in human HL60 cells assessed as activation of caspase 8 at 1 uM. The format is functional, cell-based.
For experiment [11], the system named is MCF7. The experiment can be described thus: Cytotoxicity against multidrug-resistant human MCF7 cells expressing P-gp. Type of experiment: functional.
Experiment [12] relates to MCF7. In words: Cytotoxicity against human MCF7 cells. The format is functional.
A further experiment has as its system SF-268. The experiment can be described thus: Cytotoxicity against human SF268 cells. The format is functional.
In another experiment the test system is SK-OV-3. In words: Cytotoxicity against human SKOV3 cells. The format is functional.
The next experiment concerns K562. The experiment can be described thus: Cytotoxicity against human K562 cells. Type of experiment: functional.
A further experiment has as its system HCT-15. The experiment can be described thus: Cytotoxicity against human HCT15 cells expressing P-gp. The format is functional.
In another experiment the test system is PC-3. In words: Cytotoxicity against human PC3 cells. The format is functional.
Experiment [13] has as its system HL-60. The experiment can be described thus: Antiproliferative activity against human HL60 cells at 10 uM after 24 hrs by trypan blue exclusion assay in absence of CuCl2. Type of experiment: functional, cell-based.
Experiment [14] deals with HL-60. The experiment can be described thus: Induction of apoptosis in human HL60 cells assessed as activation of caspase 3/7. Type of experiment: functional, cell-based.
Experiment [15] has as its system HL-60. The experiment can be described thus: Antiproliferative activity against human HL60 cells at 10 uM after 24 hrs by trypan blue exclusion assay in presence of CuCl2. The format is functional, cell-based.
Experiment [16] relates to HL-60. The experiment can be described thus: Induction of apoptosis in human HL60 cells assessed as activation of caspase 3/7 at 0.1 uM. The format is functional, cell-based.
Experiment [17] is filed under the species Ovis aries. The experiment can be described thus: Inhibition of lamb brain microtubule disassembly at 4 deg C.
The species entered for experiment [18] is Ovis aries. The experiment can be described thus: Inhibition of lamb brain tubulin assembly at 37 deg C.

Activity calls are given as the source filed them. The calls are words filed in the database; no cut-off is given here.

A word on the CC50: it is the concentration that lowers cell viability or growth by half. In experiment [1], `O=[N+]([O-])c1ccc(CN(Cc2ccc(O)c3ncccc23)Cc2ccc(O)c3ncccc23)cc1` displayed a CC50 of 0.042 µM.
Compound `Oc1ccc(CNCc2ccccc2)c2cccnc12` returned a CC50 in [1] of more than 1 µM.
The same measure, in the same setting: the result for `Oc1ccc(CN(Cc2cccc3ccccc23)Cc2ccc(O)c3ncccc23)c2cccnc12` reads 0.005 µM; that for `Cc1ccc([C@H](C)NCc2ccc(O)c3ncccc23)cc1`, more than 1 µM.
`Oc1ccc(CN(Cc2ccccc2C(F)(F)F)Cc2ccc(O)c3ncccc23)c2cccnc12` showed a CC50 in experiment [1] of 0.123 µM.
In experiment [1], `Cc1ccc(CNCc2ccc(O)c3ncccc23)cc1` registered a CC50 of more than 10 µM.
Still for that read-out and setting: the result for `Oc1ccc(CNCc2ccccc2C(F)(F)F)c2cccnc12` reads 0.2 µM; that for `CC(=O)O[C@@]12CO[C@@H]1C[C@H](O)[C@@]1(C)C(=O)[C@H](O)C3=C(C)[C@@H](OC(=O)[C@H](O)[C@@H](NC(=O)OC(C)(C)C)c4ccccc4)C[C@@](O)([C@@H](OC(=O)c4ccccc4)[C@H]21)C3(C)C` [DOCETAXEL], 0.00025 µM.
`Cc1ccc(CN(Cc2ccc(O)c3ncccc23)Cc2ccc(O)c3ncccc23)cc1`: the outcome (in experiment [2]; in the experiment with HL-60 [4]; with HL-60 [5]; in the experiment with HL-60 [6]; in experiment [8]; in the experiment on HL-60 [10]) was inactive. In the experiment with HL-60 [13], the outcome was inactive. In addition, the half-maximal cytotoxic concentration (CC50) with HL-60 [3] was found to be 0.0327 µM; in the experiment with HCT-116, 0.0032 µM; in the experiment with HepG2 it was 0.0521 µM; in experiment [1] it was 0.0026 µM; in experiment [9] it was 0.0085 µM; in the experiment with A549 it was 0.0043 µM. Also, the 50% cytotoxic concentration (CC50) amounted to 0.0373 µM in the experiment on MCF7 [11]; 0.0054 µM with MCF7 [12]; 0.178 µM in the experiment with SF-268; 0.008 µM in the experiment on SK-OV-3; 0.0408 µM in the experiment with K562; 0.006 µM in the experiment with HCT-15. Moreover, in the experiment with PC-3, the CC50 is 0.343 µM. Also, the outcome in the experiment on HL-60 [7], with HL-60 [15] and in the experiment on HL-60 [16] was Active. For the same compound, the Activity entry in the experiment with HL-60 [14] was “Dose-dependent effect”.
In the case of `CC(C)(C)OC(=O)N(Cc1ccccc1C(F)(F)F)Cc1ccc(O)c2ncccc12`, half-maximal cytotoxicity in experiment [1] (CC50) was put at 1 µM.
Turning to `Oc1ccc(CN(Cc2ccc(C(F)(F)F)cc2)Cc2ccc(O)c3ncccc23)c2cccnc12`, the result (in experiment [2]; with HL-60 [4]; in the experiment on HL-60 [5]; in the experiment on HL-60 [6]; in [8]; with HL-60 [10]) was inactive. In addition, the result in the experiment with HL-60 [13] and in the experiment listed under Ovis aries [18] was inactive. Besides, the CC50 with HL-60 [3] amounted to 0.0109 µM; in the experiment on HCT-116, 0.001 µM; with HepG2, 0.0228 µM; in experiment [1], 0.0013 µM; in experiment [9], 0.0015 µM; in the experiment on A549, 0.0009 µM. Besides, the CC50 with MCF7 [11] amounted to 0.0047 µM; with MCF7 [12], 0.0012 µM; with SF-268, 0.091 µM; in the experiment with SK-OV-3, 0.003 µM; in the experiment on K562, 0.0052 µM; in the experiment on HCT-15, 0.0008 µM. In addition, it took 0.206 µM to reach half-maximal cytotoxicity in the experiment on PC-3 (CC50). The outcome with HL-60 [7], in the experiment filed under Ovis aries [17], with HL-60 [15] and in the experiment with HL-60 [16] was Active. For the same compound, the Activity entry with HL-60 [14] was “Dose-dependent effect”.
Compound `Cc1ccc([C@H](C)N(Cc2ccc(O)c3ncccc23)C(=O)OC(C)(C)C)cc1` gave a CC50 in experiment [1] of more than 1 µM.
As for `CC(=O)O[C@H]1C(=O)[C@@]2(C)[C@H]([C@H](OC(=O)c3ccccc3)[C@]3(O)C[C@H](OC(=O)[C@H](O)[C@@H](NC(=O)c4ccccc4)c4ccccc4)C(C)=C1C3(C)C)[C@]1(OC(C)=O)CO[C@@H]1C[C@@H]2O` [PACLITAXEL], the midpoint of cytotoxicity in experiment [9], the CC50, lay at 0.0001 µM.
Take `Oc1ccc(CNCc2cccc3ccccc23)c2cccnc12`: the CC50 in experiment [1] was more than 1 µM.
As to `Oc1ccc(CN(Cc2ccccc2)Cc2ccc(O)c3ncccc23)c2cccnc12`, it took 0.015 µM to reach half-maximal cytotoxicity in experiment [1] (CC50).
In the case of `Oc1c(I)cc(Cl)c2cccnc12`, the outcome in the experiment on HL-60 [13] was inactive.
Take `Cc1ccc([C@H](C)N(Cc2ccc(O)c3ncccc23)Cc2ccc(O)c3ncccc23)cc1`: in experiment [1], it took 0.041 µM to reach half-maximal cytotoxicity (CC50).
In experiment [1], `Oc1ccc(CNCc2ccc(C(F)(F)F)cc2)c2cccnc12` came in with a CC50 of 10 µM.
As for `CC(C)(C)OC(=O)N(Cc1ccc(C(F)(F)F)cc1)Cc1ccc(O)c2ncccc12`, the half-maximal cytotoxic concentration (CC50) in experiment [1] turned out to be 10 µM.

For the origin of these results see ChEMBL document CHEMBL1153855, “Discovery of a new family of bis-8-hydroxyquinoline substituted benzylamines with pro-apoptotic activity in cancer cells: synthesis, structure-activity relationship, and action mechanism studies” (2009).
